Measurements: patent US4029790A, “1-Benzoyl-2 or 4 [2-(4-phenyl-piperazino)-ethyl]-piperidines” (Centre European de Recherches Mauvernay, priority 1974, dated 1977)
Where two headings read alike, the source gives them in different places.

Legend:
Histaminic bronchospasm = Histaminic bronchospasm in the Guinea Pig (histamine aerosol technique); assay type: in vivo; settings: for responders at 50 mg/kg: 50 mg/kg P.O., 45 minutes after treatment, 0.3% histamine aerosol; for ED50: read-out: Bronchospasmolytic activity ED50; for affinity for the bronchopulmonary system; activities (in words): summary of Table II; for responders at 25 mg/kg: * Dose used: 25 mg/kg P.O.
[1] = tested on: electrical stimulation of the upper laryngic nerve; test: Antitussive properties in the Cat (test of Domenjoz, electrical stimulation of the upper laryngic nerve); assay type: in vivo; settings: for inhibition in vivo at 20 mg/kg / inhibition in vivo at 10 mg/kg: Felis catus, intraduodenal, read-out: Antitussive activity, Mean (percentage of inhibition); for inhibition in vivo at 20 mg/kg: 20 mg/kg I.D.
Experimental: The bronchospasmolytic and also antitussive activities of these compounds were investigated by means of the following tests:
2. Investigation of Antitussive Properties in the Cat
The test used was then of Domenjoz R.(Arch. Exp. Pathol. v. Pharmacol. 215, 1952).
The electrical stimulation of the upper laryngic nerve had the following characteristics: 2v, 6 Hz square waves of 5 msec - period of stimulation 10 to 20 seconds at intervals of 7 minutes 5 seconds. The activity of the product was evaluated as a percentage of inhibition.

[2] = Cavia porcellus, po, 0.75 h, read-out: Bronchospasmolytic activity, % activity
[3] = Cavia porcellus, po, 0.75 h, P.O., linearisation method, ] [: 5% confidence limit of ED50

Structure (SMILES)	responders at 50 mg/kg (Histaminic bronchospasm; [2])	inhibition in vivo at 20 mg/kg [1]	ED50 (Histaminic bronchospasm; [3])	affinity for the bronchopulmonary system; activities (in words) (Histaminic bronchospasm)	other results
O=C(c1ccc(Cl)cc1)N1CCC(CCN2CCN(c3ccc(Cl)cc3)CC2)CC1 [Compound 10, 1-(4-chloro)benzolyl-4-{2-[4-(4-chloro)phenyl] -piperazinyl} -ethyl piperidine]	100%	0%			
O=C(c1ccccc1)N1CCCCC1CCN1CCN(c2ccc(Cl)cc2)CC1 (stereo not drawn) [Compound 7]	60%	74%			
O=C(c1ccc(F)cc1)N1CCCCC1CCN1CCN(c2ccc(F)cc2)CC1 (stereo not drawn) [Compound 4, 1-(4-fluoro)-benzoyl-2-{2-[4-(4-fluoro)phenyl]piperazinyl} ethyl piperidine]	100%		5.7 mg/kg	particularly marked	inhibition in vivo at 10 mg/kg ([1]; 10 mg/kg I.D.): 58.6 ± 19.2%
O=C(c1ccc(F)cc1)N1CCC(CCN2CCN(c3ccc(Cl)cc3)CC2)CC1 [Compound 12]	70%	0%	30.9 mg/kg		
O=C(c1ccc(Cl)cc1)N1CCCCC1CCN1CCN(c2cccc(Cl)c2)CC1 (stereo not drawn) [Compound 9]	80%		13 mg/kg		
COc1ccc2c(c1)C13CCCCC1C(C2)N(C)CC3 (stereo not drawn) [Dextrome-torphane, Dextrometorphane, reference compound]					responders at 100 mg/kg (Histaminic bronchospasm; [2]): 0%; inhibition in vivo at 10 mg/kg [1]: 76.2 ± 34%
CN(C)CCOC(c1ccccc1)c1ccccc1 [Diphenyl-dramine, Diphenyldramine, reference compound]					responders at 10 mg/kg (Histaminic bronchospasm; Cavia porcellus, inhaled or nasal, 0.75 h, read-out: Bronchospasmolytic activity, % activity): 93%; ED50 (Histaminic bronchospasm; Cavia porcellus, po, 0.75 h): 4.5 mg/kg; inhibition in vivo at 10 mg/kg [1]: 65.3 ± 9.5%
O=C(c1ccc(Cl)cc1)N1CCC(CCN2CCN(c3ccc(F)cc3)CC2)CC1 [Compound 13]		0%	11.6 mg/kg	particularly marked	responders at 25 mg/kg (Histaminic bronchospasm; [2]): 100%
O=C(c1ccc(F)cc1)N1CCC(CCN2CCN(c3ccc(F)cc3)CC2)CC1 [Compound 14]		44.7 ± 29.3%	0.94 mg/kg	particularly marked	responders at 25 mg/kg (Histaminic bronchospasm; [2]): 100%
O=C(c1ccccc1)N1CCCCC1CCN1CCN(c2ccc(F)cc2)CC1 (stereo not drawn) [Compound 1]	60%				inhibition in vivo at 10 mg/kg ([1]; 10 mg/kg I.D.): 73.7 ± 13.7%; antitussive properties (in words) ([1]; summary of Table II): interesting antitussive properties
O=C(c1ccc(Cl)cc1)N1CCCCC1CCN1CCN(c2ccc(F)cc2)CC1 (stereo not drawn) [Compound 2]	100%		25 mg/kg	particularly marked	inhibition in vivo at 10 mg/kg ([1]; 10 mg/kg I.D.): 0%
